In ChEMBL document CHEMBL5034018, “LXR-Mediated Regulation of Marine-Derived Piericidins Aggravates High-Cholesterol Diet-Induced Cholesterol Metabolism Disorder in Mice” (J Med Chem, 2021):
Active and inactive are the calls of the source. The calls are words filed in the database; no cut-off is given here.

Legend:
[1] = Toxicity in renal carcinoma xenografted C57BL/6 mouse assessed as effect on visceral coefficient of heart at 0.8 mg/kg, ip; format: organism-based; details: in vivo
[2] = Toxicity in renal carcinoma xenografted C57BL/6 mouse assessed as effect on visceral coefficient of liver at 0.8 mg/kg, ip; format: organism-based; details: in vivo
[3] = Toxicity in renal carcinoma xenografted C57BL/6 mouse assessed as effect on visceral coefficient of spleen at 0.8 mg/kg, ip; format: organism-based; details: in vivo
[4] = Hepatotoxicity in renal carcinoma xenografted C57BL/6 mouse assessed as fold increase in plasma AST at 0.8 mg/kg, ip; format: toxicity, organism-based; details: in vivo
[5] = Hepatotoxicity in renal carcinoma xenografted C57BL/6 mouse assessed as white discoloration of liver at 0.8 mg/kg, ip; format: toxicity, organism-based; details: in vivo
[6] = Hepatotoxicity in renal carcinoma xenografted C57BL/6 mouse assessed as liver necrosis at 0.8 mg/kg, ip by histological analysis; format: toxicity, organism-based; details: in vivo
[7] = Hepatotoxicity in renal carcinoma xenografted C57BL/6 mouse assessed as appearance of pyknotic nucleus at 0.8 mg/kg, ip by histological analysis; format: toxicity, organism-based; details: in vivo
Mus musculus [8] = experiment: Induction of histopathological changes in HCD-fed C57BL/6 mouse assessed as white discoloration of liver at 0.8 mg/kg, ip; format: organism-based; details: in vivo
[9] = Toxicity in renal carcinoma xenografted C57BL/6 mouse kidney assessed as change in BUN level at 0.8 mg/kg, ip; format: organism-based; details: in vivo
[10] = Toxicity in renal carcinoma xenografted C57BL/6 mouse assessed as change in IL-6 level at 0.8 mg/kg, ip; format: organism-based; details: in vivo
[11] = Toxicity in renal carcinoma xenografted C57BL/6 mouse assessed as change in IL-1beta level at 0.8 mg/kg, ip; format: organism-based; details: in vivo
[12] = Induction of Cholesterol accumulation in human HepG2 cells assessed as fold increase in LDL-cholesterol level at 5 uM after 48 hrs; format: functional
HepG2 [13] = experiment: Induction of apoptosis in human HepG2 cells assessed as live cells at 5 uM measured after 48 hrs by Annexin-V-FITC/propidium iodide staining based flow cytometry (reference value: 84.5 %); format: functional
HepG2 [14] = experiment: Induction of apoptosis in human HepG2 cells assessed as early apoptotic cells at 5 uM measured after 48 hrs by Annexin-V-FITC/propidium iodide staining based flow cytometry (reference value: 15.5 %); format: functional
HepG2 [15] = experiment: Induction of apoptosis in human HepG2 cells assessed as necrotic cells at 5 uM measured after 48 hrs by Annexin-V-FITC/propidium iodide staining based flow cytometry (reference value: 0 %); format: functional
HepG2 [16] = experiment: Induction of apoptosis in human HepG2 cells assessed as change in caspase 3 protein expression at 1 to 5 uM after 48 hrs; format: functional, cell-based; details: dose 1-5 µM
HepG2 [17] = experiment: Induction of mitochondrial membrane potential loss in human HepG2 cells assessed as intact mitochondrial membrane potential at 5 uM after 48 hrs by TMRM dye based flow cytometric analysis (reference value: 74.2%); format: cell-based; details: hepg2, 48 h
HepG2 [18] = experiment: Induction of calcium signal in human HepG2 cells at 5 uM by Fluo-4AM dye based fluorescence assay; format: functional, cell-based
Mus musculus [19] = experiment: Induction of hepatic pathological changes in normal chow diet fed C57BL/6 mouse at 0.8 mg/kg, ip; format: organism-based; details: in vivo
Mus musculus [20] = experiment: Induction of histopathological changes in HCD-fed C57BL/6 mouse assessed as striking subcapsular foci at 0.8 mg/kg, ip; format: organism-based; details: in vivo
Mus musculus [21] = experiment: Induction of histopathological changes in HCD-fed C57BL/6 mouse assessed as swelling gallbladder size at 0.8 mg/kg, ip; format: organism-based; details: in vivo
[22] = Toxicity in HCD-fed C57BL/6 mouse assessed as body weight loss at 0.8 mg/kg, ip measured on day 28; format: organism-based; details: in vivo
Mus musculus [23] = experiment: Induction of HCD-induced cholestasis in C57BL/6 mouse assessed as fold increase in liver total bile acid level at 0.8 mg/kg, ip; format: organism-based; details: in vivo
Mus musculus [24] = experiment: Induction of HCD-induced cholestasis in C57BL/6 mouse assessed as fold increase in plasma LDL-cholesterol level at 0.8 mg/kg, ip; format: functional
Mus musculus [25] = experiment: Induction of HCD-induced cholestasis in C57BL/6 mouse assessed as fold increase in plasma total bile acid level at 0.8 mg/kg, ip; format: functional
[26] = Inhibition of FXR protein expression level in HCD-fed C57BL/6 mouse at 0.8 mg/kg, ip; format: functional; details: C57BL/6, ip
[27] = Effect on bile acid homeostasis in HCD-fed C57BL/6 mouse assessed as reduction in Ntcp-mRNA expression by RT-qPCR analysis; format: functional; design: scale not given: the % may be the effect or the level left
[28] = Effect on bile acid homeostasis in HCD-fed C57BL/6 mouse assessed as down regulation of Oatp1 mRNA expression by RT-qPCR analysis; format: functional
Mus musculus [29] = organism: Mus musculus; experiment: Effect on bile acid homeostasis in HCD-fed C57BL/6 mouse assessed as change in Bsep mRNA expression by RT-qPCR analysis; format: functional
Mus musculus [30] = organism: Mus musculus; experiment: Effect on bile acid homeostasis in HCD-fed C57BL/6 mouse assessed as change in Mrp2 mRNA expression by RT-qPCR analysis; format: functional
[31] = Effect on bile acid homeostasis in HCD-fed C57BL/6 mouse assessed as inhibition of Cyp7a1 mRNA expression by RT-qPCR analysis; format: functional; design: scale not given: the % may be the effect or the level left
Mus musculus [32] = organism: Mus musculus; experiment: Effect on bile acid homeostasis in HCD-fed C57BL/6 mouse assessed as change in Ugt1a1 mRNA expression by RT-qPCR analysis; format: functional
[33] = Effect on bile acid homeostasis in HCD-fed C57BL/6 mouse assessed as fold increase in LXRalpha mRNA expression by RT-qPCR analysis; format: functional
Mus musculus [34] = organism: Mus musculus; experiment: Effect on bile acid homeostasis in HCD-fed C57BL/6 mouse assessed as change in Ppar-alpha mRNA expression by RT-qPCR analysis; format: functional
Mus musculus [35] = organism: Mus musculus; experiment: Effect on bile acid homeostasis in HCD-fed C57BL/6 mouse assessed as change in Car protein expression; format: functional
Mus musculus [36] = organism: Mus musculus; experiment: Effect on bile acid homeostasis in Chow diet-fed C57BL/6 mouse assessed as change in Car protein expression; format: functional
HepG2 [37] = experiment: Cytotoxicity against human HepG2 cells assessed as reduction in cell viability at < 10 uM incubated for 48 hrs by MTT assay; format: cell-based; details: hepg2, 48 h
[38] = Down regulation of SHP mRNA level in human HepG2 cells at 5 uM by RT-qPCR analysis; format: functional
[39] = Induction of LDLR mRNA level in human HepG2 cells assessed as fold increase in LDLR expression at 1 uM by RT-qPCR analysis; format: functional
[40] = Induction of LDLR mRNA level in human HepG2 cells assessed as fold increase in LDLR expression at 5 uM by RT-qPCR analysis; format: functional
[41] = Down regulation of Cyp7a1 mRNA expression level in human HepG2 cells at 1 uM by RT-qPCR analysis; format: functional
[42] = Down regulation of Cyp7a1 mRNA expression level in human HepG2 cells at 5 uM by RT-qPCR analysis; format: functional
[43] = Toxicity in mouse assessed as death at 10 mg/kg, po after 45 mins; format: organism-based; details: in vivo, 0.75 h

## C/C=C(\C)[C@H](O[C@@H]1O[C@H](CO)[C@@H](O)[C@H](O)[C@H]1O)[C@H](C)/C=C(C)/C=C/C/C(C)=C/Cc1nc(OC)c(OC)c(O)c1C
[1]
  Activity: Non-Toxic
[2]
  Activity: Non-Toxic
[3]
  Activity: Non-Toxic
[4]
  fold change (FC): 2.2
[5]
  Activity: Non-Toxic
[6]
  Activity: Toxic
[7]
  Activity: Toxic
Mus musculus [8]
  Activity: Toxic
[9]
  Activity: Non-Toxic
[10]
  Activity: Non-Toxic
[11]
  Activity: Non-Toxic
[12]
  fold change (FC): 3.1
HepG2 [13]
  Activity: 64.3%
HepG2 [14]
  Activity: 35.7%
HepG2 [15]
  Activity: 0%
HepG2 [16]
  Activity: Toxic
HepG2 [17]
  Activity: 16.6%
HepG2 [18]
  Activity: Active
Mus musculus [19]
  Activity: Non-Toxic
Mus musculus [20]
  Activity: Toxic
Mus musculus [21]
  Activity: Toxic
[22]
  Activity: Toxic
Mus musculus [23]
  fold change (FC): 2.3
Mus musculus [24]
  fold change (FC): 2.3
Mus musculus [25]
  fold change (FC): 3.5
[26]
  inhibition in vivo at 0.8 mg/kg: 31%
[27]
  Activity: 42%
[28]
  Activity: 65%
Mus musculus [29]
  Activity: inactive
Mus musculus [30]
  Activity: inactive
[31]
  Activity: 14%
Mus musculus [32]
  Activity: inactive
[33]
  fold change (FC): 1.4
Mus musculus [34]
  Activity: inactive
Mus musculus [35]
  Activity: inactive
Mus musculus [36]
  Activity: inactive
HepG2 [37]
  Activity: Non-Toxic
[38]
  Activity: 61%
[39]
  fold change (FC): 2.5
[40]
  fold change (FC): 2.2
[41]
  Activity: 51%
[42]
  Activity: 38%
[43]
  Activity: Toxic

## C/C=C(\C)[C@H](O)[C@H](C)/C=C(C)/C=C/C/C(C)=C/Cc1nc(OC)c(OC)c(O)c1C [PIERICIDIN A]
[1]
  Activity: Non-Toxic
[2]
  Activity: Non-Toxic
[3]
  Activity: Non-Toxic
[4]
  fold change (FC): 1.6
[5]
  Activity: Non-Toxic
[6]
  Activity: Toxic
[7]
  Activity: Toxic
Mus musculus [8]
  Activity: Toxic
[9]
  Activity: Non-Toxic
[10]
  Activity: Non-Toxic
[11]
  Activity: Non-Toxic
[12]
  fold change (FC): 2.7
HepG2 [13]
  Activity: 75.4%
HepG2 [14]
  Activity: 24.6%
HepG2 [15]
  Activity: 0%
HepG2 [16]
  Activity: Toxic
HepG2 [17]
  Activity: 26.4%
HepG2 [18]
  Activity: Active
Mus musculus [19]
  Activity: Non-Toxic
Mus musculus [20]
  Activity: Toxic
Mus musculus [21]
  Activity: Toxic
[22]
  Activity: Toxic
Mus musculus [23]
  fold change (FC): 2.2
Mus musculus [24]
  fold change (FC): 2.6
Mus musculus [25]
  fold change (FC): 2.8
[26]
  inhibition in vivo at 0.8 mg/kg: 79%
[27]
  Activity: 60%
[28]
  Activity: 66%
Mus musculus [29]
  Activity: inactive
Mus musculus [30]
  Activity: inactive
[31]
  Activity: 14%
Mus musculus [32]
  Activity: inactive
[33]
  fold change (FC): 1.3
Mus musculus [34]
  Activity: inactive
Mus musculus [35]
  Activity: inactive
Mus musculus [36]
  Activity: inactive
HepG2 [37]
  Activity: Non-Toxic
[38]
  Activity: 30%
[39]
  fold change (FC): 2.7
[40]
  fold change (FC): 3.1
[41]
  Activity: 27%
[42]
  Activity: 26%
[43]
  Activity: Non-Toxic
